Laboratory results: US8580957B2, “Thetrahydroquinolines derivatives as bromodomain inhibitors” (GlaxoSmithKline LLC, priority 2009, dated 2013)
Where a name gives a salt, the structure may show the parent alone.

Assays:
[1] = tested on: TNFα levels in LPS stimulated whole blood; assay: LPS Stimulated Whole Blood Measuring TNFα Levels Assay; type: cell-based; settings: LPS 200 ng/ml, 24 hours, read-out: pIC50 (TNFα levels) (converted)
Method: LPS Stimulated Whole Blood Measuring TNFα Levels Assay
(§1) Activation of monocytic cells by agonists of toll-like receptors such as bacterial lipopolysaccharide (LPS) results in production of key inflammatory mediators including TNFα. Such pathways are widely considered to be central to the pathophysiology of a range of auto-immune and inflammatory disorders.
(§2) Compounds to be tested are diluted to give a range of appropriate concentrations and 1 ul of the dilution stocks is added to wells of a 96 plate. Following addition of whole blood (130 ul) the plates are incubated at 37 degrees (5% CO2) for 30 min before the addition of 10 ul of 2.8 ug/ml LPS, diluted in complete RPMI 1640 (final concentration=200 ng/ml), to give a total volume of 140 ul per well. After further incubation for 24 hours at 37 degrees, 140 ul of PBS are added to each well. The plates are sealed, shaken for 10 minutes and then centrifuged (2500 rpm×10 min). 100 ul of the supernatant are removed and TNFα levels assayed by immunoassay (typically by MesoScale Discovery technology) either immediately or following storage at −20 degrees. Dose response curves for each compound was generated from the data and an IC50 value was calculated.

[2] = tested on: LPS induced IL-6 secretion from whole blood; assay: Measurement of LPS Induced IL-6 Secretion from Whole Blood; type: cell-based; settings: LPS 200 ng/ml, 24 hours, read-out: pIC50 (IL-6 levels) (converted)
Method: Measurement of LPS Induced IL-6 Secretion from Whole Blood
as §1, with “IL-6.” for “TNFα.”
as §2, with “concentrations of which” for “concentrations and”, “the diluted” for “the dilution”, “to” for “to wells of”, “96 well” for “96”, “and IL-6” for “and TNFα”, “degrees. Concentration” for “degrees. Dose”

IC50 [1] | IC50 [2] | Structure (SMILES)
 | ≤ 10 µM | CNCCn1cc(-c2ccc3c(c2)[C@H](Nc2ncccn2)C[C@H](C)N3C(C)=O)cn1 [Example 153, (2S,4R)-1-Acetyl-2-methyl-6-{1-[2-(methylamino)ethyl]-1H-pyrazol-4-yl}-N-2-pyrimidinyl-1,2,3,4-tetrahydro-4-quinolinamine hydrochloride]
 | ≤ 10 µM | CNCCn1cc(-c2ccc3c(c2)[C@H](Nc2cccc(C)n2)C[C@H](C)N3C(C)=O)cn1 [Example 147, (2S,4R)-1-Acetyl-2-methyl-6-{1-[2-(methylamino)ethyl]-1H-pyrazol-4-yl}-N-(6-methyl-2-pyridinyl)-1,2,3,4-tetrahydro-4-quinolinamine hydrochloride]
 | ≤ 10 µM | CNCCn1cc(-c2ccc3c(c2)[C@H](Nc2ncccc2F)C[C@H](C)N3C(C)=O)cn1 [Example 150, (2S,4R)-1-Acetyl-N-(3-fluoro-2-pyridinyl)-2-methyl-6-{1-[2-(methylamino)ethyl]-1H-pyrazol-4-yl}-1,2,3,4-tetrahydro-4-quinolinamine hydrochloride]
 | ≤ 10 µM | CNCCn1cc(-c2ccc3c(c2)[C@H](Nc2ccc(C)cn2)C[C@H](C)N3C(C)=O)cn1 [Example 155, (2S,4R)-1-Acetyl-2-methyl-6-{1-[2-(methylamino)ethyl]-1H-pyrazol-4-yl}-N-(5-methyl-2-pyridinyl)-1,2,3,4-tetrahydro-4-quinolinamine hydrochloride]
 | ≤ 10 µM | CNCCn1cc(-c2ccc3c(c2)[C@H](Nc2cc(C)ccn2)C[C@H](C)N3C(C)=O)cn1 [Example 149, (2S,4R)-1-Acetyl-2-methyl-6-{1-[2-(methylamino)ethyl]-1H-pyrazol-4-yl}-N-(4-methyl-2-pyridinyl)-1,2,3,4-tetrahydro-4-quinolinamine hydrochloride]
 | ≤ 10 µM | CNCCn1cc(-c2ccc3c(c2)[C@H](Nc2ncccc2C)C[C@H](C)N3C(C)=O)cn1 [Example 148, (2S,4R)-1-Acetyl-2-methyl-6-{1-[2-(methylamino)ethyl]-1H-pyrazol-4-yl}-N-(3-methyl-2-pyridinyl)-1,2,3,4-tetrahydro-4-quinolinamine hydrochloride]
 | ≤ 10 µM | CNCCn1cc(-c2ccc3c(c2)[C@H](Nc2cc(F)ccn2)C[C@H](C)N3C(C)=O)cn1 [Example 156, (2S,4R)-1-Acetyl-N-(4-fluoro-2-pyridinyl)-2-methyl-6-{1-[2-(methylamino)ethyl]-1H-pyrazol-4-yl}-1,2,3,4-tetrahydro-4-quinolinamine hydrochloride]
 | > 10 µM | CNCCn1cc(-c2ccc3c(c2)[C@H](Nc2ccncc2)C[C@H](C)N3C(C)=O)cn1 [Example 130, (2S,4R)-1-Acetyl-2-methyl-6-{1-[2-(methylamino)ethyl]-1H-pyrazol-4-yl}-N-4-pyridinyl-1,2,3,4-tetrahydro-4-quinolinamine formate salt]
 | ≤ 10 µM | CNCCn1cc(-c2ccc3c(c2)[C@H](Nc2cnccn2)C[C@H](C)N3C(C)=O)cn1 [Example 152, (2S,4R)-1-Acetyl-2-methyl-6-{1-[2-(methylamino)ethyl]-1H-pyrazol-4-yl}-N-2-pyrazinyl-1,2,3,4-tetrahydro-4-quinolinamine hydrochloride]
 | ≤ 10 µM | CNCCn1cc(-c2ccc3c(c2)[C@H](Nc2ccc(F)cn2)C[C@H](C)N3C(C)=O)cn1 [Example 154, (2S,4R)-1-Acetyl-N-(5-fluoro-2-pyridinyl)-2-methyl-6-{1-[2-(methylamino)ethyl]-1H-pyrazol-4-yl}-1,2,3,4-tetrahydro-4-quinolinamine hydrochloride]
 | ≤ 10 µM | CNCCn1cc(-c2ccc3c(c2)[C@H](Nc2cccc(F)n2)C[C@H](C)N3C(C)=O)cn1 [Example 151, (2S,4R)-1-Acetyl-N-(6-fluoro-2-pyridinyl)-2-methyl-6-{1-[2-(methylamino)ethyl]-1H-pyrazol-4-yl}-1,2,3,4-tetrahydro-4-quinolinamine hydrochloride]

The remaining lines, values behind:

Structure (SMILES) | IC50 [1] | IC50 [2]
CC(=O)N1c2ccc(-c3ccc(CN4CCCCC4)cc3)cc2[C@@H](Nc2ccc(C(F)(F)F)cn2)C[C@H]1C (racemic) [Example 134, (cis)-1-Acetyl-2-methyl-6-[4-(1-piperidinylmethyl)phenyl]-N-[5-(trifluoromethyl)-2-pyridinyl]-1,2,3,4-tetrahydro-4-quinolinamine formate salt] | ≤ 10 µM | 
CC(=O)N1c2ccc(-c3ccc(C(=O)O)cc3)cc2[C@H](Nc2ccc(C)cn2)C[C@@H]1C [Example 126, 4-{(2S,4R)-1-Acetyl-2-methyl-4-[(5-methyl-2-pyridinyl)amino]-1,2,3,4-tetrahydro-6-quinolinyl}benzoic acid] |  | > 10 µM
CC(=O)N1c2ccc(-c3ccc(CN4CCCCC4)cc3)cc2[C@@H](Nc2ccc(Cl)cn2)C[C@H]1C (racemic) [Example 136, (cis)-1-Acetyl-N-(5-chloro-2-pyridinyl)-2-methyl-6-[4-(1-piperidinylmethyl)phenyl]-1,2,3,4-tetrahydro-4-quinolinamine formate salt] | ≤ 10 µM | 
CC(=O)N1c2ccc(-n3cnc(C)c3)cc2[C@H](Nc2ccc(C)cn2)C[C@@H]1C [Example 190] |  | > 10 µM
CC(=O)N1c2ccc(-c3ccc(N)nc3)cc2[C@@H](Nc2ccccc2)C[C@H]1C (racemic) [Example 132, (cis)-1-Acetyl-6-(6-amino-3-pyridinyl)-2-methyl-N-phenyl-1,2,3,4-tetrahydro-4-quinolinamine hydrochloride] | ≤ 10 µM | 
CC[C@@H]1C[C@H](Nc2ccccc2)c2cc(-c3ccc(C(=O)O)cc3)ccc2N1C(C)=O (racemic) [Example 162, 4-[(cis)-1-Acetyl-2-ethyl-4-(phenylamino)-1,2,3,4-tetrahydro-6-quinolinyl]benzoic acid] | ≤ 10 µM | 
CNCc1ccc(-c2ccc3c(c2)[C@H](Nc2ccc(F)cn2)C[C@H](C)N3C(C)=O)cc1 [Example 157, (2S,4R)-1-Acetyl-N-(5-fluoro-2-pyridinyl)-2-methyl-6-{4-[(methylamino)methyl]phenyl}-1,2,3,4-tetrahydro-4-quinolinamine hydrochloride] | ≤ 10 µM | 
CC(=O)N1c2ccc(-c3ccc(CN4CCCCC4)cc3)cc2[C@@H](Nc2ccccn2)C[C@H]1C (racemic) [Example 133, (cis)-1-Acetyl-2-methyl-6-[4-(1-pipendinylmethyl)phenyl]-N-2-pyridinyl-1,2,3,4-tetrahydro-4-quinolinamine formate salt] | ≤ 10 µM | 
CC(=O)N1c2ccc(-c3ccc(C(=O)O)cc3)cc2[C@@H](Nc2cccc(F)c2)C[C@H]1C [Example 179] | ≤ 10 µM | 
CC(=O)N1c2ccc(-c3ccc(C(=O)O)cc3)cc2[C@@H](Nc2ccccc2)C[C@H]1C (stereo in doubt) [Example 91, 4-[1-Acetyl-2-methyl-4-(phenylamino)-1,2,3,4-tetrahydro-6-quinolinyl]benzoic acid] | ≤ 10 µM | 
CC(=O)N1c2ccc(-c3ccc(CN4CCCCC4)cc3)cc2[C@@H](Nc2ccc(C)cn2)C[C@H]1C (racemic) [Example 135, (cis)-1-Acetyl-2-methyl-N-(5-methyl-2-pyridinyl)-6-[4-(1-piperidinylmethyl)phenyl]-1,2,3,4-tetrahydro-4-quinolinamine formate salt] | ≤ 10 µM | 
CCC[C@@H]1C[C@H](Nc2ccc(C)cc2)c2cc(-c3ccc(CN4CCCCC4)cc3)ccc2N1C(C)=O [Example 189] | ≤ 10 µM | 
CC(=O)N1c2ccc(-n3cnc(C)c3)cc2[C@@H](Nc2ccc(C(=O)O)cn2)C[C@H]1C (racemic) [Example 143, 6-{[(cis)-1-acetyl-2-methyl-6-(4-methyl-1H-imidazol-1-yl)-1,2,3,4-tetrahydro-4-quinolinyl]amino}-3-pyridinecarboxylic acid] |  | > 10 µM
CC(=O)N1c2ccc(-c3ccc(CN4CCCCC4)cc3)cc2[C@@H](Nc2ccncc2)C[C@H]1C (racemic) [Example 138, (cis)-1-Acetyl-2-methyl-6-[4-(1-piperidinylmethyl)phenyl]-N-4-pyridinyl-1,2,3,4-tetrahydro-4-quinolinamine trifluoroacetate] | ≤ 10 µM | 
CC(=O)N1c2ccc(-n3cnc(C)c3)cc2[C@@H](Nc2ccc(C#N)cn2)C[C@H]1C (racemic) [Example 159, 6-{[(cis)-1-acetyl-2-methyl-6-(4-methyl-1H-imidazol-1-yl)-1,2,3,4-tetrahydro-4-quinolinyl]amino}-3-pyridinecarbonitrile] |  | ≤ 10 µM
